In brackets after ≈: the same amount, converted by molar mass. Where two headings read alike, the source gives them in different places.
Key:
[1] = tested on: C. difficile 4118 (CD4118, ATCC BAA-1870, BI/NAP1/027); experiment: MIC by broth microdilution against C. difficile 4118; format: cell-based, Clostridium difficile; conditions: Clostridioides difficile
[2] = in vivo; cited from earlier work
[3] = tested on: B. thetaiotaomicron ATCC 29148; experiment: microbe, parasite or virus in culture; format: cell-based; conditions: Bacteroides thetaiotaomicron, ATCC29148, read-out: MIC B. thetaiotaomicron ATCC 29148
C. sporogenes ATCC 15579 = experiment: microbe, parasite or virus in culture; format: cell-based, Clostridium sporogenes; conditions: Clostridium sporogenes, ATCC15579, read-out: MIC C. sporogenes ATCC 15579
S. aureus RN4220 = experiment: MIC against aerobic bacteria; format: cell-based; conditions: Staphylococcus aureus, RN4220; aerobic; read-out: MIC S. aureus RN4220
P. aeruginosa PAO1 = experiment: MIC against aerobic bacteria; format: cell-based, Pseudomonas aeruginosa; conditions: Pseudomonas aeruginosa, PAO1, read-out: MIC P. aeruginosa PAO1
B. subtilis ATCC 6051 = experiment: MIC against aerobic bacteria; format: cell-based, Bacillus subtilis; conditions: Bacillus subtilis, ATCC6051, read-out: MIC B. subtilis ATCC 6051
A. baumannii M2 = experiment: MIC against aerobic bacteria; format: cell-based; conditions: Acinetobacter baumannii, M2, read-out: MIC A. baumannii M2
liver carcinoma HepG2 = experiment: In vitro cytotoxicity MTS assay, HepG2
sheep erythrocytes = experiment: Hemolysis assay; conditions: tested at 32 μg/mL; 37° C., 1 h
Protocol: Sheep red blood cells (Innovative Research, Novi, Mich., USA) were washed three times with PBS pH 7.4. A 3% cell suspension in PBS (100 μL) was added to test compounds in PBS (100 μL), and then incubated at 37° C. for 1 h. The plate was centrifuged at 500×g for 10 min, and supernatants (100 μL) were transferred to a clean 96-well plate. Hemolysis was determined by measuring absorbance at 540 nm, with 1% Triton X-100 as the positive control and 0.5% DMSO in PBS as the negative control. Hemolysis assays were performed in triplicate.

P. distasonis ATCC 8503 = experiment: MIC against anaerobic bacteria; format: cell-based, Parabacteroides distasonis; conditions: Parabacteroides distasonis, ATCC8503, read-out: MIC P. distasonis ATCC 8503
S. epidermidis 1457 = experiment: MIC against aerobic bacteria; format: cell-based; conditions: Staphylococcus epidermidis, 1457, read-out: MIC S. epidermidis 1457
P. nigrescens ATCC 33563 = experiment: MIC against anaerobic bacteria; format: cell-based, Prevotella nigrescens; conditions: Prevotella nigrescens, ATCC33563, read-out: MIC P. nigrescens ATCC 33563
[4] = tested on: embryonic kidney HEK 293T/17; experiment: In vitro cytotoxicity MTS assay, HEK 293T/17
[5] = tested on: Clostridium difficile strain 4118; experiment: Minimum bactericidal concentration (MBC), logarithmic- and stationary-phase cells; format: cell-based; conditions: Clostridioides difficile, 3-log reduction of inoculum
Protocol: The MBClog values of the protonophores were determined to be 0.25-2 μg/mL (˜4 to 8-fold greater than their respective MIC values).
Clostridium difficile strain 4118 was grown to OD600˜0.4-0.5 (logarithmic phase) or for 24 h (stationary phase), and thereafter added to two-fold serial dilutions of test compounds. Cultures were incubated for 20-24 h at 37° C., and then viable counts were enumerated on BHIS agar plates. […] MBC measurements were performed in duplicate.

[6] = tested on: C. clostridioforme ATCC 25537; experiment: MIC against anaerobic bacteria; format: cell-based, Clostridium clostridioforme; conditions: Clostridium, ATCC25537, read-out: MIC C. clostridioforme ATCC 25537

**Q.** Which results are given for `Cc1cc(C(C#N)c2ccc(Cl)cc2)c(Cl)cc1NC(=O)c1cc(I)cc(I)c1O` (stereo not drawn) [Closantel, reference compound]?
**A.** MIC ([1]; ATCCBAA1870, Table 1, strain 4118, 20-24 h, 37° C., read-out: MIC C. difficile 4118): 0.25 µg/mL (≈ 0.377 µM); excreted unchanged in the feces [2]: ≤ 90%; MIC [3]: > 32 µg/mL; MIC (C. sporogenes ATCC 15579): 1 µg/mL (≈ 1.51 µM); MIC (S. aureus RN4220): 0.25 µg/mL (≈ 0.377 µM)

**Q.** Which results are given for `O=C(Nc1ccc(Oc2ccc(Cl)cc2)c(Cl)c1)c1cc(I)cc(I)c1O` [Rafoxanide, rafoxanide, reference compound]?
**A.** MIC ([1]; ATCCBAA1870): 0.13 µg/mL (≈ 0.208 µM); MIC ([1]; ATCCBAA1870, read-out: MIC C. difficile 4118): 0.13 µg/mL (≈ 0.208 µM); MIC [3]: > 32 µg/mL; MIC (P. aeruginosa PAO1): > 32 µg/mL; MIC (B. subtilis ATCC 6051): ≤ 0.03 µg/mL; MIC (A. baumannii M2): > 32 µg/mL; cell viability HepG2 (MTS) (liver carcinoma HepG2; 8 μg/mL, 16 h): no apparent effect on mammalian cell viability; in vitro toxicity toward HepG2 compared with niclosamide (liver carcinoma HepG2; relative to niclosamide): comparably lower in vitro toxicities; rupture of red blood cells (hemolysis) (sheep erythrocytes): did not cause rupture of red blood cells; MIC (P. distasonis ATCC 8503): 8 µg/mL (≈ 12.8 µM); MIC (S. epidermidis 1457): ≤ 0.03 µg/mL; MIC (P. nigrescens ATCC 33563): 8 µg/mL (≈ 12.8 µM); cell viability HEK 293T/17 (MTS) ([4]; 8 μg/mL, 16 h): no apparent effect on mammalian cell viability; in vitro toxicity toward HEK 293T/17 compared with niclosamide ([4]; relative to niclosamide): comparably lower in vitro toxicities; MBC ([5]; logarithmic-phase cells of strain 4118, read-out: MBClog): 0.5 µg/mL (≈ 0.799 µM); MBC ([5]; stationary-phase cells of strain 4118, read-out: MBCstat): 1 µg/mL (≈ 1.6 µM); MIC (C. sporogenes ATCC 15579): 1 µg/mL (≈ 1.6 µM); MIC [6]: 1 µg/mL (≈ 1.6 µM); MIC (S. aureus RN4220): 0.25 µg/mL (≈ 0.399 µM)

— patent US10792272B2, “Methods for treatment of Clostridium difficile infections” (priority 2016, dated 2020)
